The numbers were not newly measured in patent US20240398817A1, “CARDIO- AND RENOSAFE ANTIDIABETIC THERAPY” (priority 2018, published 2024), which cites them from elsewhere.

Settings in all cases: in vivo; cited from earlier work
Data set [1] has as its system people with type 2 diabetes.
Data set [2] deals with people with type 2 diabetes. This is another data set of the same source.
Data set [3] relates to people with type 2 diabetes. This is another data set of the same source.

Each structure is given as a SMILES string. Read-outs that look alike come from different tables or passages of the source.

Turning to `Cn1c(=O)cc(N2CCC[C@@H](N)C2)n(Cc2ccccc2C#N)c1=O` [alogliptin], in data set [1], the “Incidence of hospitalization for heart failure versus placebo, in words” value is recorded as “numerically increased” and the “Major adverse CV events compared with placebo, in words” value was “neutral effects”.
In the case of `N#C[C@@H]1C[C@@H]2C[C@@H]2N1C(=O)[C@@H](N)C12CC3CC(CC(O)(C3)C1)C2` [saxagliptin], the “Major adverse CV events compared with placebo, in words” value in data set [2] was “neutral effects”.
As to `N[C@@H](CC(=O)N1CCn2c(nnc2C(F)(F)F)C1)Cc1cc(F)c(F)cc1F` [sitagliptin], in data set [3], the “Incidence of heart failure hospitalization versus placebo, in words” value is “no effect” and the “Major adverse CV events compared with placebo, in words” value is “neutral effects”.
